The values below come from US5858692A, “Polychlorinated biphenyls (PCB) immunoassay method, its components and a kit for use in performing the same” (ENSYS, Inc., priority 1995, dated 1999).

The subject of this assay is monoclonal F40-11G6 antibody (anti-PCB monoclonal antibody). As to the kind of experiment: 1 ppm PCB immunoassay (competitive ELISA), cross-reactivity of compounds found at PCB sites or of similar structure. Type of assay: binding, Balb/c mice. The settings on record: for PERCENT CROSS-REACTIVITY: calculated percent cross-reactivity in the 1 ppm PCB immunoassay; for CONCENTRATION GIVING A POSITIVE RESULT; SOIL EQUIVALENT / CON[…] A POSITIVE RESULT; SOIL EQUIVALENT: positive compared to the kit standard (AROCLOR 1248, 0.7 ppm) in the 1 ppm PCB immunoassay. The method, then: The immunoassay of the present invention is performed according to the following procedure. Monoclonal anti-PCB antibody is immobilized in an assay vessel, or other solid support, preferably to the bottom of a polystyrene tube, at a concentration, of from 0.005 to 20 μg/tube, preferably 0.1 to 0.4 μg/tube. The concentration and affinity of the antibody for the sample molecules and reporter reagent molecules directly influences the overall sensitivity of the final method.
Antibody coated tubes were prepared by passively coating polystyrene (12×75 mm, NUNC) tubes with the monoclonal F40-11G6 antibody diluted in PBS and incubating overnight.
10 g of a soil sample were placed in an extraction vial containing 20 mL of methanol and 5 steel pellets (6mm) and the vial and its contents shaken for 1 minute to disperse the soil particles and extract the PCB. The sample was then filtered to clarify the sample using a filter of glass fiber and 0.45μ Teflon. 45 uL of the clarified filtrate sample was mixed with 955 μl of 10 mM PBS (pH=7.4) and the resulting mixture added to lyophilized enzyme conjugate reagent (0.3 μg) and mixed. At the same time, 2×45 uL of the AROCLOR 1248 standard are similarly treated. The sample and the two standards were then poured into three identical antibody coated tubes, respectively, and the resulting solution mixed. The resulting solution was incubated for 10 minutes at ambient temperature and then washed 4× with a wash buffer (detergent-saline solution). 250 uL of tetramethylbenzidene solution (KP Laboratories, Cat. No. 50-76-02) was added along with 250 uL of hydrogen peroxide solution (KPL, Cat. No. 50-65-02) and the resultant solution mixed. After incubating for 2.5 minutes the color development reaction was stopped with 250 uL of stop solution (1M sulfuric acid).
The optical density (OD) of the test sample was compared to the OD of the AROCLOR 1248 standard (0.7 ppm) which was tested simultaneously with the sample. If the sample OD is less than the standard OD, the sample contains greater than 1 ppm PCBs. If the sample OD is greater than the standard OD, the sample contains less than 1 ppm PCBs. Other concentration ranges can be assessed by diluting the test samples with suitable diluents, as long as they are non-reactive with the components of the assay.
These compounds were tested for their reactivity with the present 1 ppm PCB immunoassay. […] Overall, the compounds were each less than 1% cross-reactive, with one exception at 2%, indicating high-specificity for PCBs in the present method.

Bounds are passed on as bounds.

In the case of `Clc1ccc(Cl)c(Cl)c1` [1,2,4-TRICHLOROBENZENE], the “PERCENT CROSS-REACTIVITY” value is given as below 1% and the “CONCENTRATION GIVING A POSITIVE RESULT; SOIL EQUIVALENT” value (“CONCENTRATION GIVING A POSITIVE RESULT” below) was 100-1,000 PPM.
In the same order, the values of `Clc1cccc2ccccc12` [1-CHLORONAPHTHALENE] are below 0.01% and > 10,000 PPM.
In the same order, the values of `Clc1cc(Cl)c(-c2ccc(-c3ccccc3)cc2)c(Cl)c1` [2,4,6-TRICHLOR-p-TERPHENYL] are below 0.01% and > 10,000 PPM.
In the same order, the values of `Oc1c(Cl)cc(Cl)c2ccccc12` [2,4-DICHLORO-1-NAPTHOL] are 2% and 50 PPM.
On to `O=S(=O)(Oc1ccc(Cl)cc1Cl)c1ccccc1` [2,4-DICHLOROPHENYL BENZENESULFONATE], for which the “PERCENT CROSS-REACTIVITY” value was below 1% and the “CONCENTRATION GIVING A POSITIVE RESULT” value is recorded as 100-1,000 PPM.
On the same counts, the results for `O=C(O)COc1ccc(Cl)cc1Cl` [2,4-D] are below 0.1% and 1,000-10,000 PPM.
In the same order, the values of `Clc1c2ccccc2c(Cl)c2ccccc12` [9,10-DICHLOROANTHRACENE, 9,10-DICHLORO-ANTHRACENE] are below 0.01% and > 10,000 PPM.
On to `c1ccccc1` [BENZENE], for which the “PERCENT CROSS-REACTIVITY” value is on record as below 0.01% and the “CON[…] A POSITIVE RESULT; SOIL EQUIVALENT” value is given as > 10,000 PPM.
As for `COC(=O)c1cc(Oc2ccc(Cl)cc2Cl)ccc1[N+](=O)[O-]` [BIFENOX], the “PERCENT CROSS-REACTIVITY” value is below 1% and the “CONCENTRATION GIVING A POSITIVE RESULT” value was 100-1,000 PPM.
On to `Clc1c(Cl)c(Cl)c(Cl)c(Cl)c1Cl` [HEXACHLOROBENZENE], for which the “PERCENT CROSS-REACTIVITY” value is given as below 0.01% and the “CONCENTRATION GIVING A POSITIVE RESULT” value is > 10,000 PPM.
`ClCCl` [METHYLENE CHLORIDE]: the “PERCENT CROSS-REACTIVITY” value was below 0.01% and the “CON[…] A POSITIVE RESULT; SOIL EQUIVALENT” value is listed as > 10,000 PPM.
Consider `c1ccc2ccccc2c1` [NAPHTHALENE], for which the “PERCENT CROSS-REACTIVITY” value is below 0.01% and the “CONCENTRATION GIVING A POSITIVE RESULT” value is > 10,000 PPM.
In the same order, the values of `Clc1ccc(C(c2ccccc2Cl)C(Cl)(Cl)Cl)cc1` (centres unmarked) [O,P-DDT] are below 0.01% and > 10,000 PPM.
In the same order, the values of `Clc1cc(Cl)c(Cl)c(Cl)c1Cl` [PENTACHLOROBENZENE] are below 0.01% and > 10,000 PPM.
In the same order, the values of `Oc1c(Cl)c(Cl)c(Cl)c(Cl)c1Cl` [PENTACHLOROPHENOL] are below 0.01% and > 10,000 PPM.
As for `CC(Oc1cc(Cl)c(Cl)cc1Cl)C(=O)O` (centres unmarked) [SILVEX], the “PERCENT CROSS-REACTIVITY” value is below 1% and the “CONCENTRATION GIVING A POSITIVE RESULT” value is 100-1,000 PPM.
`O=S(=O)(c1ccc(Cl)cc1)c1cc(Cl)c(Cl)cc1Cl` [TETRADIFON]: the “PERCENT CROSS-REACTIVITY” value is listed as below 10% and the “CONCENTRATION GIVING A POSITIVE RESULT” value is listed as 10-100 PPM.
On the same counts, the results for `ClC=C(Cl)Cl` [TRICHLOROETHYLENE] are below 0.01% and > 10,000 PPM.
In the same order, the values of XYLENES are below 0.01% and > 10,000 PPM.
